Reference: the METLIN SMRT retention time set (Domingo-Almenara et al. 2019)

Assay: gradient 5% acetonitrile 3 min, to 50% in 2 min, to 85% in 15 min, held 3 min, 100 µL/min
Details: column: Zorbax Extend-C18 2.1 x 50 mm; eluents: water / acetonitrile, 0.1% formic acid
Method in brief: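 Retention time was recorded from adduct peaks, which were picked computationally and each inspected manually. Pure standards ran in mixtures of ~100 molecules on HPLC coupled to a quadrupole time-of-flight mass spectrometer, in positive and negative ionization mode, through a Zorbax Extend-C18 column (2.1 × 50 mm, 1.8 μm) at 100 μL/min. Eluents were water and acetonitrile, each with 0.1% formic acid.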

| RP-LC retention time [s] | SMILES |
| --- | --- |
| 798 | O=C(Nc1ccc(F)cc1)C1CCN(C(=O)c2ncn3c2COC(c2ccc(F)cc2)C3)CC1 (configuration not stated) |
| 948 | O=S(=O)(Cc1ccccc1F)N1CCCCC1c1nc(-c2ccccc2)n[nH]1 (configuration not stated) |
| 777 | COc1cc(C(=O)NCCOc2ccc(F)cc2)c([N+](=O)[O-])cc1OC |
| 1300 | CC(C)c1ccc(NC(=O)c2cc3sc(Cl)cc3n2C)cc1 |
| 808 | Cc1cc2c(cc1S(=O)(=O)NC(C)C)N(C(=O)C1CC1)CC2 |
| 640 | CCN(CC)CCNc1c(C)cc(CO)c(Cl)c1C |
| 768 | Cc1ccc(C)c(NC(=O)C2CCN(S(=O)(=O)c3ccc4c(c3)CCCC(=O)N4)CC2)c1 |
| 652 | COc1ccccc1CNC(=O)C1CCCN(c2nnc3ccccn23)C1 (configuration not stated) |
| 596 | CC(C)(C)NC(=O)N1CC2CC1C(=O)O2 (configuration not stated) |
| 871 | COc1cc(C(=O)Nc2nnc(SCc3nnc(-c4ccccc4)o3)s2)cc(OC)c1OC |
| 798 | O=C(NCCC1CCN(C(=O)Nc2cc(F)cc(F)c2)CC1)c1ccco1 |
| 596 | Cc1nc(-c2csc(S(=O)(=O)N3CCC(C(=O)NCCN4CCOCC4)CC3)c2)no1 |
| 837 | COCCNC(=O)c1c(C)oc2ccn(Cc3ccc(F)cc3)c(=O)c12 |
| 795 | COc1ccc(-c2cn3c(CC(=O)Nc4ccc(F)cc4Cl)csc3n2)cc1 |
| 861 | CCC(=O)N1CCN(c2ccc(-n3c(=O)ccc4cnc5ccc(-c6cnc7ccccc7c6)cc5c43)cc2C(F)(F)F)CC1 |
| 921 | Cc1ccc(-n2cc(C(=O)NCc3ccccc3Cl)nn2)cc1 |
| 852 | CCOC(=O)Cn1c(C2CC(=O)N(c3cccc(SC)c3)C2)nc2ccccc21 (configuration not stated) |
| 1210 | COc1cccc(-c2nc(C3CCN(S(=O)(=O)c4cc(C)ccc4C)CC3)no2)c1 |

| RP-LC retention time [s] | SMILES |
| --- | --- |
| 873 | Cc1ccc(NC(=O)N2C[C@@H](F)C[C@H]2C(=O)N2CCc3ccccc3C2)cc1F |
| 668 | Cc1ccccc1N1CCN(C(=O)c2cn3c(n2)CCCC3)CC1 |
| 855 | CC(C)n1c(N2CCN(C(=O)COc3ccccc3)CC2)cc(=O)n(C(C)C)c1=O |
| 827 | N#Cc1cccc(N2C=C(C(=O)N3CCCCC3)S(=O)(=O)c3ccc(F)cc32)c1 |
| 1030 | COc1ccc(CNC(=O)C2(C)CCN(S(=O)(=O)c3cccc(Cl)c3C)CC2)cc1 |
| 961 | CCCNC(=O)c1cnn(-c2cc(-c3nc(C(C)(C)C)no3)ccn2)c1C |
| 655 | COc1cc(CNC(=O)C2CCCN(c3nccc(C)n3)C2)cc(OC)c1OC (configuration not stated) |
| 994 | CC(C)c1cc(C(=O)Nc2cccc(Cl)c2)nn1C1CCS(=O)(=O)C1 (configuration not stated) |
| 821 | O=C1NC(=O)/C(=C\c2ccccc2Br)S1 |
| 712 | COc1ccc2c(c1)c(CN1CCC(C(=O)NC3CCCCCC3)CC1)cn2C |
| 840 | Cc1cc(S(=O)(=O)NCC2(C)CCOCC2)ccc1F |
| 584 | CCCCS(=O)(=O)N1CC[C@H](CN(C)C(C)=O)[C@H](N(C)C)C1 |
| 788 | O=C(NC1CCCC1)c1nnn(-c2ccc(F)cc2)c1-c1ccncc1 |
| 753 | CSc1cccc(NC(=O)Cc2nnc(-c3ccc4ncccc4c3)o2)c1 |
| 579 | CCOC(=O)C(=O)NCc1n[nH]c(=O)c2ccccc12 |
| 862 | CCOCCOC(=O)C1=C(C)NC2=C(C(=O)C(C(=O)OC)C(C)C2)C1c1ccccc1F (configuration not stated) |
| 757 | O=C(c1cccc([N+](=O)[O-])c1)N1CCN(C(c2ccccc2)c2ccccc2)CC1 |
| 665 | CC1CCN(S(=O)(=O)c2ccc(-c3nnc(C(=O)N4CCN(C)CC4)o3)cc2)CC1 |

| SMILES | RP-LC retention time [s] |
| --- | --- |
| Clc1ccc(C2CC3CCC2N3)cn1 (configuration not stated) | 613 |
